Assay results taken from publication PMC6270209, “Synthesis, Antimycobacterial Activity and In Vitro Cytotoxicity of 5-Chloro-N-phenylpyrazine-2-carboxamides” (Molecules, 2013).
Converted amounts (≈) assume the structure as drawn. Where two headings read alike, the source gives them in different places.

What was measured:
[1] = tested on: M. tuberculosis H37Rv CNCTC My 331/88; experiment: In vitro antimycobacterial activity, microdilution panel method (MIC); type: cell-based, Mycobacterium tuberculosis
[2] = tested on: M. kansasii Hauduroy CNCTC My 235/80; experiment: as above; type: cell-based, Mycobacterium kansasii; conditions: for MIC: Mycobacterium kansasii
[3] = tested on: M. avium ssp. avium Chester CNCTC My 80/72; experiment: as above; type: cell-based, Mycobacterium avium; conditions: for MIC: Mycobacterium avium
M. avium CNCTC My 152/73 = experiment: as above; type: cell-based, Mycobacterium avium; conditions: for MIC: Mycobacterium avium
HepG2 cells [4] = tested on: HepG2 cells
HepG2 cells [5] = experiment: cells; conditions: Homo sapiens, HepG2, read-out: HepG2 IC50
[6] = tested on: Chinese hamster ovary (CHO-K1) cell line; experiment: cells; conditions: Cricetulus griseus, CHO-K1, 24 h, read-out: CHO-K1 IC50
[7] = tested on: renal cell adenocarcinoma (ACHN) cell line; experiment: cells; conditions: Homo sapiens, 24 h, read-out: ACHN IC50
in vitro = conditions: human
[8] = Solubility in antimycobacterial testing medium (observation); type: physicochemical
[9] = tested on: Chinese hamster ovary (CHO-K1) cell line
[10] = tested on: renal cell adenocarcinoma (ACHN) cell line
[11] = RP-HPLC, C18, MeOH 70% / H2O 30%, 30 °C
HepG2 cells [12] = conditions: comparable HepG2 cytotoxicity assay; cited from earlier work
[13] = Mycobacterium tuberculosis, H37RV, M. tuberculosis H37Rv, retest with extended dilution scale up to 0.39 µg/mL, read-out: Antimycobacterial activity MIC, M. tbc (confirmation retest, value in parentheses)
[14] = Mycobacterium tuberculosis, H37RV, MIC converted to molar concentrations, read-out: M. tbc H37Rv MIC
[15] = Mycobacterium tuberculosis, H37RV, pH 5.6, M. tuberculosis H37Rv, primary test, dilution scale 100–[…], Šula's medium pH 5.6, read-out: Antimycobacterial activity MIC, M. tbc
[16] = M. kansasii Hauduroy CNCTC My 235/80
[17] = SI calculated for M. tbc as IC50 (HepG2)/MIC (in μM) using the lower MIC values (Table 1)
[18] = Mycobacterium tuberculosis, H37RV, read-out: M. tbc H37Rv MIC (µM), MIC converted to molar concentrations

Row | SMILES | MIC [1, 15] [µg/mL] | MIC [2, 16] [µg/mL] | MIC [3] [µg/mL] | MIC (M. avium CNCTC My 152/73) [µg/mL] | IC50 (HepG2 cells [5]) [µM] | IC50 [6] [µM] | IC50 [7] [µM] | IC50 (in vitro) [µM] | Antimycobacterial activity against M. tbc H37Rv (in words) [1] | Solubility in testing medium (in words) [8] | melting point | further results
1 | O=C(Nc1ccc(O)cc1)c1cnc(Cl)cn1 [Compound 4, 5-Chloro-N-(4-hydroxyphenyl)pyrazine-2-carboxamide] | 3.13 | 100 (≈ 401 µM) | > 100 | 50 (≈ 200 µM) | 69 | 48 ± 4 | 100 ± 39 | 68.6 |  |  |  | MIC [1, 13]: 12.5 µg/mL; MIC [1, 14]: 12.5 µM; Activity against M. kansasii (in words) [2]: inactive; Cytotoxicity SI (HepG2 cells [4]; [17]): 5.47
2 | O=C(Nc1cc(Cl)ccc1O)c1cnc(Cl)cn1 [Compound 21, 5-Chloro-N-(5-chloro-2-hydroxyphenyl)pyrazine-2-carboxamide] | 1.56 | 12.5 (≈ 44 µM) | 12.5 (≈ 44 µM) | 12.5 (≈ 44 µM) | 41 | 39 ± 2 | 51 ± 14 | 40.6 |  |  |  | MIC [1, 13]: 6.25 µg/mL; MIC [1, 14]: 5.5 µM; Antimycobacterial activity MIC, M. kansasii [2, 16]: 12.5 µg/mL; Antimycobacterial activity MIC, M. avium [3]: 12.5 µg/mL; Antimycobacterial activity MIC, M. avium (M. avium CNCTC My 152/73): 12.5 µg/mL; Cytotoxicity SI (HepG2 cells [4]; [17]): 7.39
3 | O=C(Nc1ccc(I)cc1Cl)c1cnc(Cl)cn1 [Compound 18, 5-Chloro-N-(2-chloro-4-iodophenyl)pyrazine-2-carboxamide] | 12.5 | 1.56 (≈ 3.96 µM) | > 50 | > 50 |  |  |  |  | inactive or weakly active | low solubility | 175.6 to 177.3 °C | Activity against M. kansasii (in words) [2]: most active
4 | O=C(Nc1ccc(C(=O)O)c(O)c1)c1cnc(Cl)cn1 [Compound 30, 4-(5-Chloropyrazine-2-carboxamido)-2-hydroxybenzoic acid] | 3.13 |  | > 100 | > 100 |  | 502 ± 122 | 371 ± 96 |  |  |  | 240 to 244 °C (dec.) | MIC ([1]; MIC converted to molar concentrations, read-out: M. tbc H37Rv MIC): 10.7 µM; Activity in comparison with PZA (times more active) ([1]; MIC for M. tbc H37Rv in µM compared): 5–10 times; MIC [1, 18]: 10 µM; Cytotoxicity rating in CHO-K1 cell line (in words) [9]: non-toxic; Cytotoxicity rating in ACHN cell line (in words) [10]: non-toxic
5 | NNC(=O)c1ccncc1 [INH, isoniazid, reference compound] | 0.39 to 0.78 | 12.5 to 25 (≈ 91.1 to 182 µM) | 12.5 to 25 (≈ 91.1 to 182 µM) | 3.13 to 6.25 (≈ 22.8 to 45.6 µM) |  |  |  |  |  |  |  | Lipophilicity logk [11]: −0.743; IC50 (HepG2 cells [12]): 79 mM
6 | COc1ccc(NC(=O)c2cnc(Cl)cn2)c(OC)c1 [Compound 5] | > 50 | > 50 | > 50 | > 50 |  |  |  |  | inactive | Insufficient solubility |  | 
7 | O=C(Nc1cc(Cl)c(Cl)cc1Cl)c1cnc(Cl)cn1 [Compound 15, 5-Chloro-N-(2,4,5-trichlorophenyl)pyrazine-2-carboxamide] | > 100 | > 100 | > 100 | > 100 |  |  |  |  | inactive or weakly active | low solubility | 189.3 to 192.4 °C | 
8 | NC(=O)c1cnc(Cl)cn1 [Compound 5-Cl-PZA, 5-chloropyrazine-2-carboxamide, reference compound] | 25 | 12.5 (≈ 79.3 µM) | > 100 | > 100 | 1590 | 290 ± 43 | 540 ± 120 | 1590 |  |  |  | MIC [1, 18]: 159 µM; Cytotoxicity SI (HepG2 cells [4]; human): 10.0
